Data published in US6620803B2, “Cosmetic or dermatological use of 7-hydroxylated steroids” (Vitasterol SARL, priority 1997, dated 2003).

How the values were obtained:
[1] = test system: thymocytes of C57BL/6 mice (mouse T cells); assay: Cell apoptosis induced by glucocorticoids in cultured mouse thymocytes (flow cytometry, propidium iodide); assay type: cell-based, mouse (C57BL/6)
Protocol: The thymus of C57BL/6 mice aged 4 weeks is removed. Culturing of the thymocytes is carried out for 6 hours in RPMI 1640 medium and in the presence or in the absence of the steroid tested. Apoptosis (fragmentation of the DNA) is measured by flow cytometry after labeling with propidium iodide. The apoptotic phenomenon is checked by electrophoresis of the DNA, which is visualized by ethidium bromide according to the conventional technique (observation of ranges of 200 base pairs).

[2] = Viability of human keratinocytes in culture (MTT test); assay type: cell-based; details: human, primary human keratinocytes in monolayer culture
Protocol: (§1) Human keratinocyzes are obtained from parts removed by surgery and are cultured in a monolayer to preconfluence. 7α-Hydroxy-DHEA is administered to these cultures at various concentrations in ethanolic solution (10%), each concentration being tested eight times. Controls are carried out with ethanol alone (10%). After 24 hours, the viability of the keratinocytes is measured by testing with MTT (3-(4,5-dimethylthiazol-2-yl)-2,5-diphenyltetrazolium bromide) where the mitochondrial dehydrogenase succinate transforms the MTT into blue crystals of formazan which are soluble in DMSO (Mosmann, J. Immunol. Methods 65: 55-63, 1983). The cell viability is calculated according to the formula:
(§2) Any value greater than 100 indicates a product favoring cell viability.

[3] = test system: human keratinocytes; assay: as above; assay type: cell-based; details: concentrations tested 10^−4 M to 10^−8 M
Protocol: as §1, §2

[4] = test system: human keratinocytes; assay: Anti-free radical effect on UVA-irradiated suspension of human keratinocytes (lipid peroxides by chemiluminescence); assay type: cell-based; details: 10^−6 M, calculated on nonirradiated controls and reference of protection
Protocol: Keratinocytes originating from a healthy donor are cultured to the subconfluent stage in medium (KGM) which is specific for the proliferation of the keratinocytes. The suspensions obtained are divided in triplicate into 4 series of which 3 are irradiated for 30 min with a lamp emitting UVA in order to activate the production of free radicals. Among the three irradiated series, one contains the vitamins C+E (0.7%) and serves as a reference of protection, one contains 7α-hydroxy-DHEA at 10^−6M and the last serves as a control.
The free radicals produced generate lipid peroxides which are determined by chemiluminescence (Belghmi et al. J. Biolum. Chemilum. 2: 113-119, 1982). The efficacy of 7α-hydroxy-DHEA is calculated on the basis of nonirradiated controls and of the reference of protection.

[5] = steroid 10^−5 M together with Dexamethasone 10^−5 M, 6 hours, dexamethasone alone 73.5
[6] = steroid 10^−6 M together with Dexamethasone 10^−6 M, 6 hours, dexamethasone alone 72.7

In the case of `C[C@]12CC[C@H](O)CC1=CC[C@@H]1[C@@H]2CC[C@]2(C)C(=O)CC[C@@H]12` [DHEA, 3β-hydroxy-5-androstene-17-one, reference compound], the “Apoptotic cells (%)” value [1, 5] is reported as 51.4%, the “Apoptotic cells (%)” value [1, 6] is reported as 39.0% and the viability at 24 h ([2]; other comparative tests, concentration not given) is reported as 100 ± 5%.

For `C[C@]12CC[C@H](O)CC1=C[C@@H](O)[C@@H]1[C@@H]2CC[C@]2(C)C(=O)CC[C@@H]12` [7α-hydroxy-DHEA, 3β,7α-dihydroxy-5-androsten-17-one], the “Apoptotic cells (%)” value [1, 5] was 48.6%, the “Apoptotic cells (%)” value [1, 6] was 58.8% and the viability at 24 h ([2]; 5.10^−5 M, 24 hours, control 100) was 111 ± 7%. The viability at 24 h ([2]; 5.10^−6 M, 24 hours, control 100) was 147 ± 9%, the viability at 24 h ([2]; 5.10^−7 M, 24 hours, control 100) was 139 ± 3% and the viability at 24 h ([2]; 10^−4 M, 24 hours, control 100) was 124 ± 10%. The viability at 24 h ([2]; 10^−5 M, 24 hours, control 100) was 119 ± 7%, the viability at 24 h ([2]; 10^−6 M, 24 hours, control 100) was 154 ± 6% and the viability at 24 h ([2]; 10^−7 M, 24 hours, control 100) was 147 ± 5%. For the same compound, the viability at 24 h ([2]; 10^−8 M, 24 hours, control 100) was 127 ± 3%, the Cytotoxicity on keratinocytes [3] was “no cytotoxicity was observed” and the Efficacy [4] was 90%.

With `C[C@@H]1C[C@H]2[C@@H]3CCC4=CC(=O)C=C[C@]4(C)[C@@]3(F)[C@@H](O)C[C@]2(C)[C@@]1(O)C(=O)CO` [Dexamethasone, reference compound] the “Apoptotic cells (%)” value ([1]; Dexamethasone 10^−5 M alone, thymocytes cultured 6 hours, ethanol alone 41.5) was 73.5% and the “Apoptotic cells (%)” value ([1]; Dexamethasone 10^−6 M alone, thymocytes cultured 6 hours, ethanol alone 41.5) was 72.7%.

In the case of `C[C@]12CC[C@H](O)C[C@@H]1C[C@@H](O)[C@@H]1[C@@H]2CC[C@]2(C)C(=O)CC[C@@H]12` [7α-hydroxy-ISOA, 3β,7α-dihydroxy-5α-androstan-17-one], the “Apoptotic cells (%)” value [1, 5] is reported as 46.3% and the “Apoptotic cells (%)” value [1, 6] is reported as 72.0%.
